What was measured:
Test in all cases: relative viability (nuclei count vs DMSO), 5 days (fraction); higher = more cells survive
Palbociclib + Olaparib = compound: CC(=O)c1c(C)c2cnc(Nc3ccc(N4CCNCC4)cn3)nc2n(C2CCCC2)c1=O [Palbociclib] + O=C(c1cc(Cc2n[nH]c(=O)c3ccccc23)ccc1F)N1CCN(C(=O)C2CC2)CC1 [Olaparib] (partner 8 µM)
How it was run: (§1)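 Nuclei were stained with Hoechst during a one-step fixation (final 0.05% Triton X-100, 1% formaldehyde, 1 ug/ml Hoechst) carried out 5 days after dosing, then counted on 4× images. The cells, lung cancer lines in 1536-well plates, had been dosed by pin tool the day after seeding with one drug alone or a fixed anchor-drug dose plus five library-drug doses (not always all listed) in √10 steps. Relative viability is the nuclei count in treated wells divided by that in vehicle wells, and each value is the median of duplicate plates.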

Palbociclib + Vorinostat = compound: CC(=O)c1c(C)c2cnc(Nc3ccc(N4CCNCC4)cn3)nc2n(C2CCCC2)c1=O [Palbociclib] + O=C(CCCCCCC(=O)Nc1ccccc1)NO [Vorinostat] (partner 1 µM)
How it was run: as §1

Palbociclib + Tozasertib = compound: CC(=O)c1c(C)c2cnc(Nc3ccc(N4CCNCC4)cn3)nc2n(C2CCCC2)c1=O [Palbociclib] + Cc1cc(Nc2cc(N3CCN(C)CC3)nc(Sc3ccc(NC(=O)C4CC4)cc3)n2)n[nH]1 [Tozasertib] (partner 0.1 µM)
How it was run: as §1

Palbociclib + Trametinib = compound: CC(=O)c1c(C)c2cnc(Nc3ccc(N4CCNCC4)cn3)nc2n(C2CCCC2)c1=O [Palbociclib] + CC(=O)Nc1cccc(-n2c(=O)n(C3CC3)c(=O)c3c(Nc4ccc(I)cc4F)n(C)c(=O)c(C)c32)c1 [Trametinib] (partner 0.02 µM)
How it was run: as §1

Cell Line | relative viability (Palbociclib + Olaparib; first compound 0.01 µM) | relative viability (Palbociclib + Olaparib; first compound 0.03162 µM) | relative viability (Palbociclib + Olaparib; first compound 0.1 µM) | relative viability (Palbociclib + Olaparib; first compound 0.3162 µM) | relative viability (Palbociclib + Olaparib; first compound 1 µM) | relative viability (Palbociclib + Vorinostat; first compound 0.01 µM) | relative viability (Palbociclib + Vorinostat; first compound 0.03162 µM) | relative viability (Palbociclib + Vorinostat; first compound 0.1 µM) | relative viability (Palbociclib + Vorinostat; first compound 0.3162 µM) | relative viability (Palbociclib + Vorinostat; first compound 1 µM) | relative viability (Palbociclib + Tozasertib; first compound 0.01 µM) | relative viability (Palbociclib + Tozasertib; first compound 0.03162 µM) | relative viability (Palbociclib + Tozasertib; first compound 0.1 µM) | relative viability (Palbociclib + Tozasertib; first compound 0.3162 µM) | relative viability (Palbociclib + Tozasertib; first compound 1 µM) | relative viability (Palbociclib + Trametinib; first compound 0.01 µM) | relative viability (Palbociclib + Trametinib; first compound 0.03162 µM) | relative viability (Palbociclib + Trametinib; first compound 0.1 µM) | relative viability (Palbociclib + Trametinib; first compound 0.3162 µM) | relative viability (Palbociclib + Trametinib; first compound 1 µM)
NCI-H2023 | 0.467 | 0.478 | 0.402 | 0.374 | 0.262 | 0.721 | 0.281 | 0.54 | 0.515 | 0.303 | 0.377 | 0.31 | 0.314 | 0.297 | 0.292 | 0.655 | 0.408 | 0.477 | 0.464 | 0.326
UMC-11 | 0.332 | 0.375 | 0.341 | 0.298 | 0.136 | 0.308 | 0.42 | 0.369 | 0.312 | 0.242 | 0.197 | 0.187 | 0.202 | 0.22 | 0.208 | 0.762 | 0.602 | 0.421 | 0.406 | 0.258
NCI-H727 | 0.738 | 0.728 | 0.699 | 0.728 | 0.568 | 1.25 | 1.03 | 1.01 | 1.01 | 0.909 | 0.589 | 0.482 | 0.52 | 0.529 | 0.405 | 0.366 | 0.336 | 0.397 | 0.387 | 0.403
LK-2 | 0.896 | 0.656 | 0.625 | 0.585 | 0.556 | 0.383 | 0.217 | 0.281 | 0.248 | 0.324 | 0.167 |  | 0.15 | 0.196 | 0.167 | 0.788 | 0.676 | 0.752 | 0.633 | 0.708
HOP-62 | 0.319 |  | 0.618 | 0.399 | 0.452 | 0.499 |  | 0.423 | 0.482 | 0.395 | 0.368 |  | 0.344 | 0.347 | 0.338 | 0.431 |  | 0.36 | 0.382 | 0.288
HCC-366 | 0.376 |  | 0.384 | 0.335 | 0.215 | 0.388 |  | 0.289 | 0.213 | 0.135 | 0.135 |  | 0.149 | 0.129 | 0.139 | 0.466 |  | 0.41 | 0.298 | 0.24
LCLC-103H | 0.701 | 0.709 | 0.731 | 0.669 | 0.584 | 0.743 | 0.512 | 0.62 | 0.668 | 0.445 | 0.483 | 0.385 | 0.559 | 0.423 | 0.357 | 0.7 | 0.617 | 0.686 | 0.654 | 0.547
NCI-H1666 | 0.769 | 0.708 | 0.705 | 0.664 | 0.708 | 1.05 | 0.947 | 0.836 | 0.835 | 0.788 | 0.642 | 0.585 | 0.539 | 0.47 | 0.458 | 0.862 | 0.704 | 0.784 | 0.727 | 0.728
NCI-H460 | 0.433 | 0.289 | 0.378 | 0.323 | 0.165 | 0.669 | 0.604 | 0.454 | 0.369 | 0.115 | 0.33 | 0.0915 | 0.563 | 0.486 | 0.467 | 0.0946 | 0.116 | 0.0577 | 0.185 | 0.0348

— the supplement of paper PMC10307832
